Seven compounds from patent US20080242878A1, “Semi-Synthetic Taxane Derivatives With Antitumor Activity” (priority 2005, published 2008) can be followed below.

One assay relates to MCF7/R. Put plainly: Cytotoxicity, SRB test, 72 h exposure, MCF7/R (resistant cells). The settings on record: for IC50: Homo sapiens, MCF7R, 72 h, read-out: Cytotoxicity (IC50 (nM) 72 h exposure of cells to compound ± SE (SRB test) MCF7/R); for RI (cross-resistance index): IC50 MCF7/R versus IC50 MCF7.
The subject of the next assay is MCF7. Put plainly: Cytotoxicity, SRB test, 72 h exposure, MCF7. The conditions noted are these: Homo sapiens, MCF7, 72 h, read-out: Cytotoxicity (IC50 (nM) 72 h exposure of cells to compound ± SE (SRB test) MCF7).

`CO/C1=C(\C)C([C@]2(OC(C)=O)CO[C@@H]2CCOCSC)[C@H](OC(=O)c2ccccc2)[C@]2(O)C[C@H](OC(=O)[C@H](O)[C@H](CC(C)C)NC(=O)OC(C)(C)C)C(C)=C(C1=O)C2(C)C` (stereo partly drawn) [Ex. 2, 13-(N-Boc-β-isobutyl-isoserinoyl)-9-O-methyl-7-O-methylthiomethyl-C7,8-seco-10-deacetylbaccatin III]: in the assay with MCF7/R, the IC50 was determined as 558 ± 28 nM and the “RI (cross-resistance index)” value came out at 5.4. The IC50 in the assay on MCF7 is 103 ± 13 nM.

`CO/C1=C(\C)C([C@]2(OC(C)=O)CO[C@@H]2CCO)[C@H](OC(=O)c2ccccc2)[C@]2(O)C[C@H](OC(=O)[C@H](O)[C@H](CC(C)C)NC(=O)OC(C)(C)C)C(C)=C(C1=O)C2(C)C` (stereo partly drawn) [Ex. 3, 13-(N-Boc-β-isobutyl-isoserinoyl)-9-O-methyl-C7,8-seco-10-deacetylbaccatin III]: in the assay with MCF7/R, the IC50 came out at 945 ± 40 nM and the “RI (cross-resistance index)” value came to 25. Moreover, the IC50 with MCF7 amounted to 38 ± 3.9 nM.

Regarding `CSCOCC[C@H]1OC[C@@]1(OC(C)=O)C1/C(C)=C(/O)C(=O)C2=C(C)[C@@H](OC(=O)[C@H](O)[C@H](CC(C)C)NC(=O)OC(C)(C)C)C[C@@](O)([C@H]1OC(=O)c1ccccc1)C2(C)C` (stereo partly drawn) [Ex. 4, 13-(N-Boc-β-isobutylisoserinoyl)-7-O-methylthiomethyl-C7,8-seco-10-deacetylbaccatin III], in the assay on MCF7/R, the IC50 came to 501 ± 41 nM and the “RI (cross-resistance index)” value turned out to be 19. In addition, in the assay on MCF7, the IC50 is 26 ± 2.1 nM.

Take `CSCOCC[C@H]1OC[C@@]1(OC(C)=O)C1/C(C)=C(/OCSC)C(=O)C2=C(C)[C@@H](OC(=O)[C@H](O)[C@H](CC(C)C)NC(=O)OC(C)(C)C)C[C@@](O)([C@H]1OC(=O)c1ccccc1)C2(C)C` (stereo partly drawn) [Ex. 5, 13-(N-Boc-β-isobutylisoserinoyl)-7,9-O-bis(methylthiomethyl)-C7,8-seco-10-deacetylbaccatin III]: in the assay with MCF7/R, the IC50 was 333 ± 23 nM and the “RI (cross-resistance index)” value turned out to be 5.7. In addition, the IC50 in the assay with MCF7 was 58 ± 5.9 nM.

In the case of `CO/C1=C(\C)C([C@]2(OC(C)=O)CO[C@@H]2CCOC(C)=O)[C@H](OC(=O)c2ccccc2)[C@]2(O)C[C@H](OC(=O)[C@H](O)[C@H](CC(C)C)NC(=O)OC(C)(C)C)C(C)=C(C1=O)C2(C)C` (stereo partly drawn) [Ex. 6, 13-(N-Boc-β-isobutylisoserinoyl)-9-O-methyl-7-O-acetyl-C7,8-seco-10-deacetylbaccatin III], the IC50 was 747 ± 45 nM in the assay with MCF7/R and 66 ± 5.4 nM in the assay with MCF7. In addition, the “RI (cross-resistance index)” value in the assay on MCF7/R stood at 11.

On to `COCC[C@H]1OC[C@@]1(OC(C)=O)C1/C(C)=C(/OC)C(=O)C2=C(C)[C@@H](OC(=O)[C@H](O)[C@H](CC(C)C)NC(=O)OC(C)(C)C)C[C@@](O)([C@H]1OC(=O)c1ccccc1)C2(C)C` (stereo partly drawn) [Ex. 7, 13-(N-Boc-β-isobutylisoserinoyl)-7,9-of-O-methyl-C7,8-seco-10-deacetylbaccatin III], for which the IC50 with MCF7/R worked out at 168 ± 9.5 nM; in the assay on MCF7, 25.5 ± 2.6 nM. Further, the “RI (cross-resistance index)” value with MCF7/R is 6.6.

For the compound `CC(=O)O[C@@]1(C2/C(C)=C(/O)C(=O)C3=C(C)[C@@H](OC(=O)[C@H](O)[C@H](CC(C)C)NC(=O)OC(C)(C)C)C[C@@](O)([C@H]2OC(=O)c2ccccc2)C3(C)C)CO[C@@H]1CCO` (stereo partly drawn) [IDN 5390, reference compound], in the assay with MCF7/R, the IC50 amounted to 1040 ± 93 nM and the “RI (cross-resistance index)” value came out at 93. Further, in the assay on MCF7, the IC50 worked out at 11.2 ± 0.81 nM.
